Measurements from PubChem BioAssay (NCI).
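Cultured in 96-well plates, cells were exposed to test compound for 48 hours across five concentrations. At the GI50, growth is halved. TGI denotes the concentration required for complete inhibition of growth.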

Columns and labels:
Test in all cases: NCI anticancer screen, dose series, 48 h
SN12C renal = system: SN12C renal
SK-MEL-2 melanoma = system: SK-MEL-2 melanoma
SK-MEL-5 melanoma = system: SK-MEL-5 melanoma
NCI-H522 lung = system: NCI-H522 lung
SNB-19 CNS = system: SNB-19 CNS
KM20L2 colon = system: KM20L2 colon
HOP-62 NSCLC = system: HOP-62 NSCLC
NCI-H226 lung = system: NCI-H226 lung
DMS 114 small cell lung = system: DMS 114 small cell lung
RXF 393 renal = system: RXF 393 renal

SMILES	TGI (SN12C renal)	TGI (SK-MEL-2 melanoma)	TGI (SK-MEL-5 melanoma)	TGI (NCI-H522 lung)	TGI (SNB-19 CNS)	TGI (KM20L2 colon)	TGI (HOP-62 NSCLC)	TGI (NCI-H226 lung)	TGI (DMS 114 small cell lung)	TGI (RXF 393 renal)	GI50 (SN12C renal)	GI50 (SK-MEL-2 melanoma)	GI50 (SK-MEL-5 melanoma)	GI50 (NCI-H522 lung)	GI50 (SNB-19 CNS)	GI50 (HOP-62 NSCLC)	GI50 (NCI-H226 lung)	GI50 (RXF 393 renal)
CN(C)C(=S)/N=c1\ss/c(=N\S(=O)(=O)c2ccccc2)n1C	> 100 µM	> 100 µM	> 100 µM	> 100 µM	> 100 µM	> 100 µM	> 100 µM	> 100 µM	> 100 µM	> 100 µM								
NC(=O)c1nc(-c2ccc(Cl)c(Cl)c2)nc2ccccc12	> 100 µM	> 100 µM	> 100 µM	> 100 µM	> 100 µM	> 100 µM	> 100 µM	> 100 µM	> 100 µM	> 22.2 µM								
CNc1nc(-c2ccc3c(N)n[nH]c3c2)cc(N2C[C@@H](C(=O)NC3CCCCC3)CC[C@H]2C)n1	20.2 µM	8.13 µM	13.9 µM	18.3 µM	18 µM		17.9 µM	22.7 µM		8.78 µM	3.04 µM	1.18 µM	2.84 µM	4.52 µM	4.42 µM	3.26 µM	6.74 µM	1.31 µM
CNC(=O)c1cc(-c2ccc(F)cc2)cc(-c2ccc(S(=O)(=O)N3CCCC3)cc2)c1N	> 25 µM	> 25 µM	> 25 µM	> 25 µM	> 25 µM		> 25 µM	> 25 µM		> 25 µM	> 23.8 µM	> 25 µM	12.9 µM	22.3 µM	> 25 µM	> 25 µM	> 25 µM	14.7 µM
CC[C@@H](C(=O)[C@@H](C)[C@@H](O)[C@H](C)[C@@H]1O[C@@H]([C@@H](CC)C(=O)O)CC[C@@H]1C)[C@H]1O[C@]2(C=C[C@@H](O)[C@]3(CC[C@@](C)([C@H]4CC[C@](O)(CC)[C@H](C)O4)O3)O2)[C@H](C)C[C@@H]1C	44.8 µM	2.48 µM	1.61 µM	0.47 µM	5.97 µM		16.9 µM	19.6 µM		2.64 µM	0.226 µM	0.279 µM	0.401 µM	0.0469 µM	0.689 µM	1.12 µM	2.07 µM	0.114 µM
CCN1CCC(O)(/C=C/c2ccccc2)C(C(=O)/C=C/c2ccccc2)C1 (stereo unspecified)	3.7 µM	7.25 µM	12.2 µM	3.36 µM	22.3 µM	7.22 µM	28.4 µM	9.93 µM	5.6 µM	3.24 µM								
COC(=O)C(/C(=N\O)C(=O)Nc1ccc(Br)cc1)c1nc2ccccc2[nH]c1=O (stereo unspecified)	> 100 µM	49.2 µM	68.2 µM	32.5 µM	> 100 µM	> 100 µM	92.6 µM	71.9 µM	41.2 µM	89.2 µM								
COc1ccc(/C=C/C(=O)c2ccc(Nc3nc(Nc4ccc(F)cc4)nc(Nc4ccc(F)cc4)n3)cc2)cc1	> 100 µM	34.6 µM	18.5 µM	24.9 µM	> 100 µM		30 µM	65.7 µM		14.2 µM	55.1 µM	14.1 µM	3.51 µM	8.89 µM	30.9 µM	13.1 µM	19.8 µM	3.09 µM
Cn1cccc1-c1cc(-c2ccccc2)nc(N)c1C#N	> 100 µM	> 100 µM	> 100 µM	> 100 µM	> 100 µM		> 100 µM	> 100 µM		> 100 µM	> 76.8 µM	> 100 µM	98.7 µM	> 78.2 µM	> 89.5 µM	84.6 µM	> 46.4 µM	> 100 µM
C#C[C@@H](CCCC)OC(=O)N[C@H](C)c1ccccc1	> 100 µM	53.1 µM	46.5 µM		> 100 µM	> 100 µM	> 100 µM	82 µM	> 100 µM									
COC(=O)C(=O)C(C#N)c1c(Cl)cccc1Cl (stereo unspecified)	> 100 µM	> 100 µM	> 100 µM	> 100 µM	> 100 µM	> 100 µM	> 100 µM	> 100 µM	> 100 µM	> 100 µM								
Cc1c2ccccc2c(C)n2c1nc1cc(Cl)c(Cl)cc12	> 100 µM	> 100 µM	> 100 µM	80.3 µM	> 100 µM		> 100 µM	> 100 µM		> 100 µM	> 100 µM	> 100 µM	25.7 µM	15.1 µM	> 100 µM	> 100 µM	> 100 µM	> 100 µM
O=C1/C(=C/c2ccc(O)cc2)Oc2ccccc21	> 100 µM	> 100 µM	> 100 µM	62 µM	> 100 µM		> 100 µM	> 100 µM		> 100 µM								
CC1=CC(=O)N2C(OC[C@@H]2c2ccccc2)O1 (stereo partly specified)	> 100 µM	> 100 µM	> 100 µM	> 100 µM	> 100 µM	> 100 µM	> 100 µM	> 100 µM		> 100 µM								
Cc1nc(-n2nc(-c3ccccc3)cc2-c2ccccc2)sc1C(=O)/C=C/c1cccc([N+](=O)[O-])c1	73.4 µM	34.2 µM	26.7 µM	30.8 µM	23.5 µM	40.8 µM	38.1 µM		34.3 µM	29.8 µM								
Cc1cn2cc(-c3ccc4c(c3)CC(=O)N4)nc2s1	> 100 µM	> 100 µM	> 100 µM	> 100 µM	> 100 µM		> 100 µM	> 100 µM		> 100 µM	> 100 µM	> 100 µM	94 µM	99.6 µM	> 100 µM	64.7 µM	> 100 µM	> 100 µM
CC1OC(=O)N2CCC=CC12 (stereo unspecified)	> 100 µM	> 100 µM	> 100 µM	> 100 µM	> 100 µM	> 100 µM		> 100 µM	> 100 µM	> 100 µM								
Cc1nc2sc(C(=O)Nc3ccccc3)c(N)c2cc1C(=O)c1ccccc1	> 50 µM	> 50 µM	8.13 µM	12.7 µM	> 50 µM		> 50 µM	> 50 µM		34.3 µM	3.01 µM	2.83 µM	1.97 µM	1.54 µM	2 µM	3.33 µM	16.9 µM	1.83 µM
